{"source": "patent US6300368A", "about": "“Anilide derivatives and antiarrhythmic agents containing the same” (priority 1998, dated 2001)", "data": [{"tested_on": "aconitin-induced atrial fibrillation", "test": "Aconitin-induced atrial fibrillation model in anaesthetized dogs (Pharmacological Trial 1)", "type": "in vivo, dog", "settings": "Canis lupus familiaris; intravenous, anesthetized dogs, as hydrochloride; read-out: minimum dose level which suppresses atrial fibrillation", "method": "(§1) Pharmacological Trial 1: Evaluation of effectiveness in aconitin-induced atrial fibrillation model (dogs) Evaluation was performed according to K. Hashimoto (Jpn. J. Pharmacol., Vol. 46, 349-358, 1988) as follows:\n(§2) Method: Dog was anesthetized and thoracotomy was made. Persistent atrial fibrillation was induced by placing a piece of filter paper impregnated with 0.5% aconitin solution (20 to 30 μl) on the right atrium. […] Onset and suppression of atrial fibrillation were monitored electrocardiographically by placing Ag--AgCl bipolar electrode on the right atrial auricle.\n(§3) Results: Each compound in Examples 1 to 87 suppressed atrial fibrillation at least following dose level (all compounds were used in the form of hydrochloride).", "units": {"minimal effective dose": "mg/kg"}, "values": [{"molecule": "COc1cccc(OC)c1C(=O)Nc1ccc(OCCN)cc1.Cl", "note": "[Example 1, 4'-(2-aminoethoxy)-2,6-dimethoxybenzanilide Hydrochloride]", "minimal effective dose": 10}, {"molecule": "CCN(CC)CCOc1ccc(NC(=O)c2c(OC)cccc2OC)cc1.Cl", "note": "[Example 2, 4'-[2-(diethylamino)ethoxy]-2,6-dimethoxybenzanilide Hydrochloride]", "minimal effective dose": 10}, {"molecule": "CCNCCOc1ccc(NC(=O)C2CCOCC2)cc1.Cl", "note": "[Example 3, 4'-[2-(ethylamino)ethoxy]-3,4,5,6-tetrahydro-2H-pyran-4-carboxanilide Hydrochloride]", "minimal effective dose": 10}, {"molecule": "COc1cc(NC(=O)c2c(OC)cccc2OC)ccc1OCCNC(C)C.Cl", "note": "[Example 4, 4'-[2-(isopropylamino)ethoxy]-2,6-dimethoxy-3'-methoxybenzanilide Hydrochloride]", "minimal effective dose": 10}, {"molecule": "CC(C)NCCOc1ccc(NC(=O)c2ccccc2S(C)(=O)=O)cc1NS(C)(=O)=O.Cl", "note": "[Example 5, 4'-[2-(isopropylamino)ethoxy]-3'-methanesulfonamido-2-(methanesulfonyl)benzanilide Hydrochloride]", "minimal effective dose": 10}, {"molecule": "Cc1cc(NC(=O)c2ccccc2NS(C)(=O)=O)cc(C)c1OCCNC(C)C.Cl", "note": "[Example 6, 4'-[2-(isopropylamino)ethoxy]-2-methanesulfonamido-3',5'-dimethylbenzanilide Hydrochloride]", "minimal effective dose": 10}, {"molecule": "CCOc1cccc(OCC)c1C(=O)Nc1ccc(OCCN(CC)CC)cc1.Cl", "note": "[Example 8, 4'-[2-(Diethylamino)ethoxy]-2,6-diethoxybenzanilide Hydrochloride]", "minimal effective dose": 10}, {"molecule": "CCN(CC)CCOc1ccc(NC(=O)c2ccccc2NS(C)(=O)=O)cc1.Cl", "note": "[Example 9, 4'-[2-(Diethylamino)ethoxy]-2-(methanesulfonamido)benzanilide Hydrochloride]", "minimal effective dose": 10}, {"molecule": "CCN(CC)CCOc1ccc(NC(=O)c2ccccc2NS(=O)(=O)CC)cc1.Cl", "note": "[Example 10, 4'-[2-(Diethylamino)ethoxy]-2-(ethanesulfon amido)benzanilide Hydrochloride]", "minimal effective dose": 3}, {"molecule": "CCCS(=O)(=O)Nc1ccccc1C(=O)Nc1ccc(OCCN(CC)CC)cc1.Cl", "note": "[Example 11, 4'-[2-(Diethylamino)ethoxy]-2-(propanesulfonamido)benzanilide Hydrochloride]", "minimal effective dose": 3}, {"molecule": "CCN(CC)CCOc1ccc(NC(=O)c2ccccc2NS(=O)(=O)C(C)C)cc1.Cl", "note": "[Example 12, 4'-[2-(Diethylamino)ethoxy]-2-(isopropanesulfonamido)benzanilide Hydrochloride]", "minimal effective dose": 3}, {"molecule": "CCCN(CCC)CCOc1ccc(NC(=O)c2c(OC)cccc2OC)cc1", "note": "[Example 13, 4'-[2-(Dipropylamino)ethoxy]-2,6-dimethoxybenzanilide]", "minimal effective dose": 10}, {"molecule": "CCCN(CCC)CCOc1ccc(NC(=O)c2c(C)cccc2C)cc1", "note": "[Example 14, 4'-[2-(Dipropylamino)ethoxy]-2,6-dimethylbenzanilide]", "minimal effective dose": 3}, {"molecule": "COc1cccc(OC)c1C(=O)Nc1ccc(OCCN2CCCC2)cc1", "note": "[Example 16, 2,6-Dimethoxy-4'-[2-(1-pyrrolidinyl)ethoxy]benzanilide]", "minimal effective dose": 10}, {"molecule": "CS(=O)(=O)Nc1ccccc1C(=O)Nc1ccc(OCCN2CCCC2)cc1", "note": "[Example 17, 2-Methanesulfonamido-4'-[2-(1-pyrrolidinyl)ethoxy]benzanilide]", "minimal effective dose": 10}, {"molecule": "COc1cccc(OC)c1C(=O)Nc1ccc(OCCN2CCCCC2)cc1", "note": "[Example 18, 2,6-Dimethoxy-4'-(2-piperidinoethoxy)benzanilide]", "minimal effective dose": 10}, {"molecule": "Cc1cccc(C)c1C(=O)Nc1ccc(OCCN2CCOCC2)cc1", "note": "[Example 19, 2,6-Dimethyl-4'-(2morpholinoethoxy)benzanilide]", "minimal effective dose": 3}, {"molecule": "CCNCCOc1ccc(NC(=O)c2c(OC)cccc2OC)cc1.Cl", "note": "[Example 20, 4'-[(2-Ethylamino)ethoxy]-2,6-dimethoxybenzanilide Hydrochloride]", "minimal effective dose": 10}, {"molecule": "CCNCCOc1ccc(NC(=O)c2ccccc2NS(C)(=O)=O)cc1.Cl", "note": "[Example 21, 4'-[(2-Ethylamino)ethoxy]-2-(methanesulfonamido) benzanilide Hydrochloride]", "minimal effective dose": 10}, {"molecule": "CCNCCOc1ccc(NC(=O)c2ccccc2S(C)(=O)=O)cc1.Cl", "note": "[Example 22, 4'-[(2-Ethylamino)ethoxy]-2-(methanesulfonyl)benzanilide Hydrochloride]", "minimal effective dose": 3}, {"molecule": "CCNCCOc1ccc(NC(=O)C2CCOC2)cc1.Cl", "note": "(stereo not shown) [Example 23, 4'-[(2-Ethylamino)ethoxy]-2,3,4,5-tetrahydro-3-furanilide Hydrochloride]", "minimal effective dose": 3}, {"molecule": "CCNCCOc1ccc(NC(=O)CCOC)cc1", "note": "[Example 24, 4'-[(2-Ethylamino)ethoxy]-3-methoxypropananilide]", "minimal effective dose": 10}, {"molecule": "CCNCCOc1ccc(NC(=O)c2ccoc2)cc1.Cl", "note": "[Example 25, 4'-[(2-Ethylamino)ethoxy]-3-furanilide Hydrochloride]", "minimal effective dose": 10}, {"molecule": "CCCNCCOc1ccc(NC(=O)c2c(OC)cccc2OC)cc1", "note": "[Example 26, 2,6-Dimethoxy-4'-[2-(propylamino)ethoxy]benzanilide]", "minimal effective dose": 10}, {"molecule": "CCCNCCOc1ccc(NC(=O)C2CCOC2)cc1.Cl", "note": "(stereo not shown) [Example 27, 4'-[2-(Propylamino)ethoxy]-2,3,4,5-tetrahydro-3-furanilide Hydrochloride]", "minimal effective dose": 3}, {"molecule": "CCCNCCOc1ccc(NC(=O)C2CCOCC2)cc1.Cl", "note": "[Example 28, 4'-[2-(Propylamino)ethoxy]-3,4,5,6-tetrahydro-2H-pyran-4-carboxanilide Hydrochloride]", "minimal effective dose": 3}, {"molecule": "CC(C)NCCOc1ccc(NC(=O)c2ccccc2NS(C)(=O)=O)cc1.Cl", "note": "[Example 29, 4'-[2-(Isopropylamino)ethoxy]-2-(methanesulfonamido) benzanilide Hydrochloride]", "minimal effective dose": 0.3}, {"molecule": "COc1cccc(OC)c1C(=O)Nc1ccc(OCCNC(C)C)cc1", "note": "[Example 30, 4'-[2-(Isopropylamino)ethoxy]-2,6-dimethoxybenzanilide]", "minimal effective dose": 10}, {"molecule": "Cc1cccc(C)c1C(=O)Nc1ccc(OCCNC(C)C)cc1", "note": "[Example 31, 4'-[2-(Isopropylamino)ethoxy]-2,6-dimethylbenzanilide]", "minimal effective dose": 10}, {"molecule": "CC(C)NCCOc1ccc(NC(=O)c2ccccc2S(C)(=O)=O)cc1.Cl", "note": "[Example 32, 4'-[2-(Isopropylamino)ethoxy]-2-(methanesulfonyl) benzanilide Hydrochloride]", "minimal effective dose": 10}, {"molecule": "CC(C)NCCOc1ccc(NC(=O)C2CCOC2)cc1.Cl", "note": "(stereo not shown) [Example 33, 4'-[2-(Isopropylamino)ethoxy]-2,3,4,5-tetrahydro-3-furanilide Hydrochloride]", "minimal effective dose": 10}, {"molecule": "CC(C)NCCOc1ccc(NC(=O)C2CCOCC2)cc1.Cl", "note": "[Example 34, 4'-[2-(Isopropylamino)ethoxy]-3,4,5,6-tetrahydro-2H-pyran-4-carboxanilide Hydrochloride]", "minimal effective dose": 3}]}, {"tested_on": "aconitin-induced atrial fibrillation", "test": "Aconitin-induced atrial fibrillation model in anaesthetized dogs (Pharmacological Trial 1)", "type": "in vivo, dog", "settings": "intravenous, anesthetized dogs, as hydrochloride", "method": "as §1, §2, §3", "units": {"minimum dose level which suppresses atrial fibrillation": "mg/kg"}, "values": [{"molecule": "4'-[2-(Dimethylamino)ethoxy]-2,6-diethylbenzanilide [Example 7]", "minimum dose level which suppresses atrial fibrillation": 3.0}, {"molecule": "4'-[2-(Dipropylamino)ethoxy]-2,6-dimethoxybenzanilide [Example 15]", "minimum dose level which suppresses atrial fibrillation": 10}]}]}
